Measurements published in the supplement of paper PMC10307832.

Tests used:
Assay in all cases: relative viability (nuclei count vs DMSO), 5 days (fraction); higher = more cells survive
Avagacestat + Dasatinib = compound: NC(=O)[C@@H](CCC(F)(F)F)N(Cc1ccc(-c2ncon2)cc1F)S(=O)(=O)c1ccc(Cl)cc1 [Avagacestat] + Cc1nc(Nc2ncc(C(=O)Nc3c(C)cccc3Cl)s2)cc(N2CCN(CCO)CC2)n1 [Dasatinib] (partner 0.075 µM)
Summary of the method: (§1)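 One day after seeding in 1536-well plates, lung cancer cell lines were dosed by pin tool. Dosing was either single-drug or a fixed anchor-drug dose plus five library-drug doses (not always all listed) in √10 steps. After 5 days, nuclei were stained in one fix-and-stain step and counted on 4× images, and relative viability is the nuclei count of treated wells over that of vehicle wells, given as the median of duplicate plates.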

Avagacestat + Foretinib = compound: NC(=O)[C@@H](CCC(F)(F)F)N(Cc1ccc(-c2ncon2)cc1F)S(=O)(=O)c1ccc(Cl)cc1 [Avagacestat] + COc1cc2c(Oc3ccc(NC(=O)C4(C(=O)Nc5ccc(F)cc5)CC4)cc3F)ccnc2cc1OCCCN1CCOCC1 [Foretinib] (partner 0.25 µM)
Summary of the method: as §1

Avagacestat + Decitabine = compound: NC(=O)[C@@H](CCC(F)(F)F)N(Cc1ccc(-c2ncon2)cc1F)S(=O)(=O)c1ccc(Cl)cc1 [Avagacestat] + Nc1ncn([C@H]2C[C@H](O)[C@@H](CO)O2)c(=O)n1 [Decitabine] (partner 2 µM)
Summary of the method: as §1

Avagacestat + Luminespib = compound: NC(=O)[C@@H](CCC(F)(F)F)N(Cc1ccc(-c2ncon2)cc1F)S(=O)(=O)c1ccc(Cl)cc1 [Avagacestat] + CCNC(=O)c1noc(-c2cc(C(C)C)c(O)cc2O)c1-c1ccc(CN2CCOCC2)cc1 [Luminespib] (partner 0.01 µM)
Summary of the method: as §1

| Cell Line | relative viability (Avagacestat + Dasatinib; first compound 0.08 µM) | relative viability (Avagacestat + Dasatinib; first compound 0.253 µM) | relative viability (Avagacestat + Dasatinib; first compound 0.8 µM) | relative viability (Avagacestat + Dasatinib; first compound 2.53 µM) | relative viability (Avagacestat + Dasatinib; first compound 8 µM) | relative viability (Avagacestat + Foretinib; first compound 0.08 µM) | relative viability (Avagacestat + Foretinib; first compound 0.253 µM) | relative viability (Avagacestat + Foretinib; first compound 0.8 µM) | relative viability (Avagacestat + Foretinib; first compound 2.53 µM) | relative viability (Avagacestat + Foretinib; first compound 8 µM) | relative viability (Avagacestat + Decitabine; first compound 0.08 µM) | relative viability (Avagacestat + Decitabine; first compound 0.253 µM) | relative viability (Avagacestat + Decitabine; first compound 0.8 µM) | relative viability (Avagacestat + Decitabine; first compound 2.53 µM) | relative viability (Avagacestat + Decitabine; first compound 8 µM) | relative viability (Avagacestat + Luminespib; first compound 0.08 µM) | relative viability (Avagacestat + Luminespib; first compound 0.253 µM) | relative viability (Avagacestat + Luminespib; first compound 0.8 µM) | relative viability (Avagacestat + Luminespib; first compound 2.53 µM) | relative viability (Avagacestat + Luminespib; first compound 8 µM) |
| --- | --- | --- | --- | --- | --- | --- | --- | --- | --- | --- | --- | --- | --- | --- | --- | --- | --- | --- | --- | --- |
| NCI-H358 | 0.163 | 0.159 | 0.164 | 0.155 | 0.148 | 0.7 | 0.866 | 0.737 | 0.598 | 0.665 | 0.251 | 0.264 | 0.19 | 0.212 | 0.219 | 0.449 | 0.467 | 0.368 | 0.412 | 0.244 |
| NCI-H441 | 0.518 | 0.471 | 0.541 | 0.532 | 0.454 | 0.975 | 1.29 | 1.04 | 1.14 | 0.956 | 0.263 | 0.232 | 0.245 | 0.265 | 0.24 | 0.441 | 0.403 | 0.327 | 0.361 | 0.301 |
| NCI-H460 | 0.625 | 0.59 | 0.747 | 0.402 | 0.475 | 1.02 | 1.4 | 1.05 | 0.827 | 0.885 | 0.628 | 0.703 | 0.481 | 0.417 | 0.419 | 0.0352 | 0.0325 | 0.0362 | 0.0361 | 0.0325 |
| NCI-H520 | 0.267 | 0.16 | 0.158 | 0.168 | 0.162 | 0.755 | 0.753 | 0.731 | 0.657 | 0.629 | 0.606 | 0.501 | 0.467 | 0.453 | 0.475 | 0.223 | 0.241 | 0.239 | 0.218 | 0.23 |
| NCI-H596 | 0.592 | 0.651 | 0.654 | 0.451 | 0.648 | 1 | 0.831 | 0.85 | 0.809 | 0.84 | 1.09 | 1.01 | 1.28 | 0.906 | 0.928 | 1.19 | 0.876 | 1.35 | 0.924 | 0.756 |
| NCI-H647 | 0.195 | 0.188 | 0.232 | 0.118 | 0.147 | 1.38 | 1.41 | 1.27 | 1.21 | 1.11 | 0.459 | 0.465 | 0.42 | 0.374 | 0.377 | 0.184 | 0.148 | 0.146 | 0.15 | 0.12 |
| NCI-H650 | 0.499 | 0.398 | 0.481 | 0.456 | 0.451 | 1.05 | 1.08 | 1.11 | 1.08 | 1.11 | 0.33 | 0.324 | 0.317 | 0.328 | 0.367 | 0.91 | 0.965 | 0.92 | 0.831 | 0.818 |
| NCI-H661 | 1.05 | 0.962 | 1.07 | 0.891 | 0.852 | 1.04 | 1.17 | 1.07 | 0.974 | 1.08 | 0.585 | 0.568 | 0.608 | 0.56 | 0.558 | 0.983 | 1.08 | 0.946 | 0.913 | 1.01 |
| NCI-H727 | 0.35 | 0.355 | 0.5 | 0.369 | 0.41 | 0.947 | 0.932 | 0.803 | 0.783 | 0.881 | 0.889 | 0.815 | 1.06 | 0.836 | 0.875 | 0.36 | 0.343 | 0.289 | 0.355 | 0.39 |
| NCI-H838 | 0.293 | 0.285 | 0.328 | 0.309 | 0.253 | 1.1 | 1.35 | 1.07 | 1.01 | 0.944 | 0.483 | 0.48 | 0.466 | 0.471 | 0.442 | 0.363 | 0.256 | 0.233 | 0.254 | 0.191 |
| NCI-H1355 | 0.688 | 0.754 | 0.687 | 0.557 | 0.62 | 1.11 | 1.24 | 0.961 | 0.846 | 0.785 | 0.357 | 0.329 | 0.371 | 0.344 | 0.309 | 0.769 | 0.717 | 0.797 | 0.635 | 0.641 |
| NCI-H1395 | 0.412 | 0.405 | 0.416 | 0.372 | 0.442 | 0.981 | 0.946 | 0.903 | 0.899 | 0.846 | 0.719 | 0.717 | 0.67 | 0.692 | 0.681 | 0.806 | 0.836 | 0.567 | 0.799 | 0.662 |
| NCI-H1437 | 0.283 | 0.278 | 0.346 | 0.291 | 0.211 | 1.42 | 1.41 | 1.27 | 1.23 | 1.11 | 0.643 | 0.668 | 0.654 | 0.598 | 0.628 | 1.4 | 1.28 | 1.12 | 1.17 | 1.05 |
| NCI-H1650 | 0.37 | 0.35 | 0.272 | 0.304 | 0.346 | 1.47 | 1.11 | 1.06 | 1.04 | 1.09 | 0.432 | 0.558 | 0.457 | 0.432 | 0.416 | 0.222 | 0.203 | 0.212 | 0.202 | 0.193 |
